Reference: patent EP0299975B1, “COMPOSITION FOR ARRESTING ANGIOGENESIS AND CAPILLARY, CELL OR MEMBRANE LEAKAGE” (Angiogenics Limited, priority 1986, dated 1987)

Assays:
[1] = test system: tumor angiogenesis; conditions: hamster cheek pouch, under certain conditions; cited from earlier work
[2] = cited from earlier work
[3] = test system: angiogenesis; test: Steroids tested with heparin and heparin fragments against angiogenesis
From the text: Deltacortisone has not previously been disclosed for use in combination with heparin fragments generally, or pentosan polysulfate.

[4] = test system: transitional cell carcinoma; test: Subcutaneous transitional cell carcinoma in mice, oral or injected therapy; format: in vivo
Method: 100 mice injected with live transitional cell carcinoma subcutaneously, and were grown to a maximum size of 2 cm prior to therapy. The mice were given SP₅₄ and hydrocortisone orally and by injection. The composition was orally administered with SP₅₄ at 0.06 mg/ml and hydrocortisone at 0.5 mg/ml in drinking water. In others the composition was injected with 0.66 mg/ml SP₅₄ and hydrocortisone at 3 mg/ml twice daily, 0.55 ml.

Compound	overcoming angiogenesis [3]	other results
C[C@H]1C[C@@H]2[C@H]([C@@H](O)C[C@@]3(C)[C@H]2CC[C@]3(O)C(=O)CO)[C@@]2(C)C=CC(=O)C=C12 [6 alpha-methyl-prednisolone]		effect on tumor angiogenesis [1]: partially suppressed
C[C@]12C=CC(=O)C=C1CC[C@@H]1[C@@H]2C(=O)C[C@@]2(C)[C@H]1CC[C@]2(O)C(=O)CO [Deltacortisone]		water solubility [2]: not water soluble to a sufficiently substantial extent
CC(C)CCC[C@@H](C)[C@H]1CC[C@H]2[C@@H]3CC=C4C[C@@H](O)CC[C@]4(C)[C@H]3CC[C@]12C [cholesterol]	ineffective	
C[C@]12CCC(=O)C=C1CC[C@@H]1[C@@H]2CC[C@@]2(C)[C@H]1CC[C@]2(O)C(=O)CO [cortexolone]	ineffective	
C[C@]12C[C@H](O)[C@H]3[C@@H](CCC4=CC(=O)CC[C@@]43C)[C@@H]1CC[C@@H]2C(=O)CO [corticosterone]	ineffective	
C[C@]12CCC(=O)C=C1CC[C@@H]1[C@@H]2[C@@H](O)C[C@@]2(C)[C@H]1CC[C@]2(O)C(=O)CO [hydrocortisone]		effect on tumor ([4]; SP₅₄ eliminated from treatment): regression of tumor; lung metastasis ([4]; mice with transitional cell carcinoma after treatment): found to have lung metastasis
CC(=O)[C@H]1CC[C@H]2[C@@H]3CC=C4C[C@@H](O)CC[C@]4(C)[C@H]3CC[C@]12C [pregnenolone]	ineffective	
CC(=O)[C@H]1CC[C@H]2[C@@H]3CCC4=CC(=O)CC[C@]4(C)[C@H]3CC[C@]12C [progesterone]	ineffective	
C[C@]12CC[C@H]3[C@@H](CCC4=CC(=O)CC[C@@]43C)[C@@H]1CC[C@@H]2O [testosterone]	ineffective	
